Reference: patent EP1891948A1, “Treatment of neurological and neuropsychological disorders” (Probiodrug AG, priority 2000, dated 2002)

Test system: WistarF/Han (WF) rats
Assay: Social interaction (SI) test of anxiety, combined i.c.v. treatment (Example 3)
Type: in vivo
Conditions: isoleucyl thiazolidine alone 5pmol-500nmol, Fig. 7
Description: Animals. Male WistarF/Han (WF) rats (Central Animal Laboratory, Hannover Medical School, Hannover, Germany, see http://www.mh-hannover.de/institut/tierlabor/wf.htm for details), weighing 330-370g, were housed in a sound-proof, temperature controlled (24.0±0.5°C) room under specific pathogen free conditions with a 12/12h dark/light cycle (lights on at 07.00 with illumination level of 80 Lux). Food (Altromin lab chow pellets) and tap water were available ad libitum. Under ketamine/xylasine (100/5 mg/kg, i.p.) anesthesia, the rats were fixed in a Kopf stereotaxic frame and implanted with cannulae (Plastic One, Inc., Roanoke, VA, USA) above the lateral ventricle. […]
Animals were randomly divided into two sets of four experimental groups (n=5-6/group), which completed different consecutive SI test of anxiety. […] The time spent in active social interaction (SI-time), 1h and 12h food-intake were measured. […]
Social interaction (SI) test. […] Behavior was monitored using a video camera placed above the field inside the testing/isolation box. The SI behavior of both rats was recorded on-line from a monitor placed outside on top of the box. The following parameters were scored by an observer (HPN) unaware of the substrain of rats: duration of time spent in sniffing, following, crawling under and over other rats, but not passive body contact (resting, sleeping). […]

With `CCC(C)C(N)C(=O)N1CCSC1` (stereo not shown) [isoleucyl thiazolidine] the “time spent in active social interaction (SI-time)” value was “"bell-shaped" dose-dependent anxiolytic-like effects”.
